Test results reported in patent US20210122724A1, “TETRACARBOXYLIC DIANHYDRIDE, CARBONYL COMPOUND, POLYIMIDE PRECURSOR RESIN, AND POLYIMIDE” (ENEOS Corporation, priority 2018, published 2021).

Test: Solubility of tetracarboxylic dianhydride in organic solvent (visual, 50 mg sample)
Format: physicochemical
Protocol: As the samples, the tetracarboxylic dianhydride (exo/exo type BzDA) obtained in Example 2 and the tetracarboxylic dianhydride (endo/endo type BzDA) obtained in Comparative Example 2 were separately used to confirm the solubility of each tetracarboxylic dianhydride in an organic solvent as follows. Specifically, after 50 mg of the sample was added to a screw tube, an organic solvent was added little by little into the screw tube, and the amount of the sample dissolved was visually confirmed. Note that, as the organic solvents, N,N′-dimethylacetamide and N-methyl-2-pyrrolidone were used to confirm the solubility in the solvents.

| SMILES | concentration of solution that can be prepared (solubility) (solvent N,N′-dimethylacetamide) [% by mass] | concentration of solution that can be prepared (solubility) (solvent N-methyl-2-pyrrolidone) [% by mass] |
| --- | --- | --- |
| O=C1OC(=O)C2C3CC(CC3c3ccc(C4CC5CC4C4C(=O)OC(=O)C54)cc3)C12 (stereo not drawn) [endo/endo type BzDA] | < 1 | < 3.5 |
| O=C1OC(=O)C2C3CC(CC3c3ccc(C4CC5CC4C4C(=O)OC(=O)C54)cc3)C12 (stereo not drawn) [exo/exo type BzDA, exo,exo-5,5′-(1,4-phenylene)bis(bicyclo[2.2.1]heptane-2,3-exo-dicarboxylic anhydride)] | ≥ 5 | ≥ 5 |
